Data as given in patent publication US11452717B2, “Small molecule activators of nicotinamide phosphoribosyltransferase (NAMPT) and uses thereof” (Sanford Burnham Prebys Medical Discovery Institute, priority 2017, dated 2022).

Biological target: NAMPT enzyme (Homo sapiens (Human), UniProt P43490)
Assay: Enzyme Assay and NMN Detection (NAMPT reaction, fluorescence detection of NMN)
Type: biochemical
Settings: Table B-1; NAMPT activation, NMN formation
How it was run: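 Reaction in 50 mM HEPES pH 7.5, 5 mM MgCl2, 0.1% Prionex, 0.005% Tween 20, 1 mM TCEP at room temperature, with 16 nM NAMPT, 120 uM ATP, 5 uM nicotinamide, 6.25 uM PRPP, 0.04 U/ml pyrophosphatase for 2 h. Stopped with acetophenone/KOH then formic acid; NMN quantified by fluorescence (ex380/em460) against calibration curve.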

NAMPT enzyme, sequence (P43490 whole entry, species assumed): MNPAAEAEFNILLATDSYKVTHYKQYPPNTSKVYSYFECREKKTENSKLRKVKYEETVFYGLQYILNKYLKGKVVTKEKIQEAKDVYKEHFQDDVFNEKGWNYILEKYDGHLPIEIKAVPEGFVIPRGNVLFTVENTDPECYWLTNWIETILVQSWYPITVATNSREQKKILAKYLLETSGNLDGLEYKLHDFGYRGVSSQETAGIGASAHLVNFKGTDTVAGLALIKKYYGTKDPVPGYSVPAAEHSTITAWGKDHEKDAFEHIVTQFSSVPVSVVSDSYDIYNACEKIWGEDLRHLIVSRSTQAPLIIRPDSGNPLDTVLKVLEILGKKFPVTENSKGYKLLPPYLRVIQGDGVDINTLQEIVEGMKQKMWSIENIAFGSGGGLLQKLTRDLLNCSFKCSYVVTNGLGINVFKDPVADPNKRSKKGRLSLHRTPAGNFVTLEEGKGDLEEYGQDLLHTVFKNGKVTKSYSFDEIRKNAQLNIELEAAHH

Row | EC50 | Structure (SMILES)
1 | < 100 nM | COc1ccccc1CNS(=O)(=O)c1ccc(NC(=O)NCc2cn[nH]c2)cc1 [N-(2-Methoxy-benzyl)-4-[3-(1H-pyrazol-4-ylmethyl)-ureido]-benzenesulfonamide]
2 | 100 to 2000 nM | CN(C1CCCC1)S(=O)(=O)c1ccc(NC(=O)NCc2cn[nH]c2)cc1 [N-Cyclopentyl-N-methyl-4-[3-(1H-pyrazol-4-ylmethyl)-ureido]-benzenesulfonamide]
3 | < 100 nM | O=C(NCc1cn[nH]c1)Nc1ccc(S(=O)(=O)c2ccc(Cl)cc2)cc1 [1-[4-(4-Chloro-benzenesulfonyl)-phenyl]-3-(1H-pyrazol-4-ylmethyl)-urea]

Same assay, conditions: Table B-2; NAMPT activation, NMN formation

Row | Structure (SMILES) | EC50
4 | O=C(NCc1ccncc1)Nc1ccc(S(=O)(=O)NCc2ccccc2C(F)(F)F)cc1 [4-(3-Pyridin-4-ylmethyl-ureido)-N-(2-trifluoromethyl-benzyl)-benzenesulfonamide] | 100 to 2000 nM
5 | CN(C)c1cccc(CNS(=O)(=O)c2ccc(NC(=O)NCc3ccncc3)cc2)c1 [N-(3-Dimethylamino-benzyl)-4-(3-pyridin-4-ylmethyl-ureido)-benzenesulfonamide] | 100 to 2000 nM
6 | O=C(NCc1ccncc1)Nc1ccc(C(=O)Nc2cccs2)cc1 [4-(3-(Pyridin-4-ylmethyl)ureido)-N-(thiophen-2-yl)benzamide] | 2000 to 5000 nM
7 | CN(Cc1ccccc1)C(=O)c1ccc(NC(=O)NCc2ccncc2)cc1 [N-benzyl-N-methyl-4-(3-(pyridin-4-ylmethyl)ureido)benzamide] | 100 to 2000 nM
8 | CC(C)N(c1ccc(NC(=O)NCc2ccncc2)cc1)S(=O)(=O)c1ccccc1 [N-Isopropyl-N-[4-(3-pyridin-4-ylmethyl-ureido)-phenyl]-benzenesulfonamide] | 2000 to 5000 nM
9 | COc1cccc(CNS(=O)(=O)c2ccc(NC(=O)NCc3ccncc3)cc2)c1 [N-(3-Methoxy-benzyl)-4-(3-pyridin-4-ylmethyl-ureido)-benzenesulfonamide] | 100 to 2000 nM
10 | CCN(CC)C(=O)c1ccc(NC(=O)NCc2ccncc2)cc1 [N,N-diethyl-4-(3-(pyridin-4-ylmethyl)ureido)benzamide] | > 20000 nM
11 | CN(C)C(=O)c1ccc(NC(=O)NCc2ccncc2)cc1 [N,N-dimethyl-4-(3-(pyridin-4-ylmethyl)ureido)benzamide] | > 20000 nM
12 | O=C(NCc1ccncc1)Nc1ccc(NS(=O)(=O)c2cccc(Cl)c2)cc1 [3-Chloro-N-[4-(3-pyridin-4-ylmethyl-ureido)-phenyl]-benzenesulfonamide] | < 100 nM
13 | O=C(NCc1ccncc1)Nc1ccc(S(=O)(=O)NCc2ccccc2)cc1 [N-Benzyl-4-(3-pyridin-4-ylmethyl-ureido)-benzenesulfonamide] | 100 to 2000 nM
14 | O=C(NCc1ccncc1)Nc1ccc(C(=O)NCCO)cc1 [N-(2-hydroxyethyl)-4-(3-(pyridin-4-ylmethyl)ureido)benzamide] | > 20000 nM

Other lines, results leading:

Row | EC50 | Structure (SMILES)
15 | 100 to 2000 nM | CCOCCCNC(=O)c1ccc(NC(=O)NCc2ccncc2)cc1 [N-(3-ethoxypropyl)-4-(3-(pyridin-4-ylmethyl)ureido)benzamide]
16 | > 20000 nM | COc1ccccc1CNC(=O)c1ccc(NC(=O)NCc2ccncc2)cc1 [N-(2-methoxybenzyl)-4-(3-(pyridin-4-ylmethyl)ureido)benzamide]
17 | > 20000 nM | O=C(NCc1ccncc1)Nc1ccc(F)cc1 [1-(4-Fluorophenyl)-3-(pyridin-4-ylmethyl)urea]
18 | 5000 to 20000 nM | O=C(NCc1ccncc1)Nc1ccc(C(=O)NC2CCOC2)cc1 (stereo not drawn) [4-(3-(pyridin-4-ylmethyl)ureido)-N-(tetrahydrofuran-3-yl)benzamide]
19 | 100 to 2000 nM | COc1ccccc1CNS(=O)(=O)c1ccc(NC(=O)NCc2ccncc2)cc1 [N-(2-methoxybenzyl)-4-(3-(pyridin-4-ylmethyl)ureido)benzenesulfonamide]
20 | 5000 to 20000 nM | O=C(NCc1ccncc1)Nc1ccc(C(=O)N2CCOCC2)cc1 [1-(4-(Morpholine-4-carbonyl)phenyl)-3-(pyridin-4-ylmethyl)urea]
21 | > 20000 nM | O=C(NCc1ccncc1)Nc1cccc(C(=O)O)c1 [3-(3-(Pyridin-4-ylmethyl)ureido)benzoic acid]
22 | 100 to 2000 nM | O=C(NCc1ccncc1)Nc1ccc(S(=O)(=O)NC2CCOC2)cc1 (stereo not drawn) [4-(3-Pyridin-4-ylmethyl-ureido)-N-(tetrahydro-furan-3-yl)-benzenesulfonamide]
23 | 100 to 2000 nM | O=C(NCc1ccncc1)Nc1ccc(S(=O)(=O)NCc2ccccc2F)cc1 [N-(2-fluorobenzyl)-4-(3-(pyridin-4-ylmethyl)ureido)benzenesulfonamide]
24 | 100 to 2000 nM | CS(=O)(=O)c1ccc(CNS(=O)(=O)c2ccc(NC(=O)NCc3ccncc3)cc2)cc1 [N-(4-Methanesulfonyl-benzyl)-4-(3-pyridin-4-ylmethyl-ureido)-benzenesulfonamide]

Same assay, conditions: Table B-4; NAMPT activation, NMN formation

Row | Structure (SMILES) | EC50
25 | COc1ccccc1-c1ccccc1S(=O)(=O)c1ccc(NC(=O)NCc2cn[nH]c2)cc1 [1-[4-(2′-Methoxy-biphenyl-2-sulfonyl)-phenyl]-3-(1H-pyrazol-4-ylmethyl)-urea] | 5000 to 20000 nM
26 | O=C(NCc1cn[nH]c1)Nc1ccc(-c2cccc3scnc23)cc1 [1-(4-Benzothiazol-4-yl-phenyl)-3-(1H-pyrazol-4-ylmethyl)-urea] | 100 to 2000 nM
27 | Cn1nc(-c2ccc(NC(=O)NCc3cn[nH]c3)cc2)c2cc(Cl)ccc21 [1-((1H-Pyrazol-4-yl)methyl)-3-(4-(5-chloro-1-methyl-1H-indazol-3-yl)phenyl)urea] | 100 to 2000 nM
28 | Cc1ccc(CNS(=O)(=O)c2ccc(NC(=O)NCc3cn[nH]c3)cc2)cc1 [N-(4-Methyl-benzyl)-4-[3-(1H-pyrazol-4-ylmethyl)-ureido]-benzenesulfonamide] | 100 to 2000 nM
29 | O=C(NCc1cn[nH]c1)Nc1ccc(S(=O)(=O)c2ccccc2OC(F)(F)F)cc1 [1-(1H-Pyrazol-4-ylmethyl)-3-[4-(2-trifluoromethoxy-benzenesulfonyl)-phenyl]-urea] | < 100 nM
30 | O=C(NCc1cn[nH]c1)Nc1ccc(S(=O)(=O)c2ccc(Cl)c(Cl)c2)cc1 [1-[4-(3,4-Dichloro-benzenesulfonyl)-phenyl]-3-(1H-pyrazol-4-ylmethyl)-urea] | 5000 to 20000 nM
31 | O=C(NCc1cn[nH]c1)Nc1ccc(S(=O)(=O)c2ccccc2-c2cccnc2)cc1 [1-(1H-Pyrazol-4-ylmethyl)-3-[4-(2-pyridin-3-yl-benzenesulfonyl)-phenyl]-urea] | 100 to 2000 nM
32 | O=C(NCc1cn[nH]c1)Nc1ccc(S(=O)(=O)c2cncnc2)cc1 [1-((1H-Pyrazol-4-yl)methyl)-3-(4-(pyrimidin-5-ylsulfonyl)phenyl)urea] | 100 to 2000 nM
33 | O=C(NCc1cn[nH]c1)Nc1ccc(NS(=O)(=O)Cc2ccccc2Cl)cc1 [C-(2-Chloro-phenyl)-N-{4-[3-(1H-pyrazol-4-ylmethyl)-ureido]-phenyl}-methanesulfonamide] | < 100 nM

Continued, values first:

Row | EC50 | Structure (SMILES)
34 | 100 to 2000 nM | Cc1ccc(S(=O)(=O)c2ccc(NC(=O)NCc3cn[nH]c3)cc2)nc1 [1-[4-(5-Methyl-pyridine-2-sulfonyl)-phenyl]-3-(1H-pyrazol-4-ylmethyl)-urea]
35 | 2000 to 5000 nM | O=C(NCc1cn[nH]c1)Nc1ccc(S(=O)(=O)c2ncccn2)cc1 [1-(1H-Pyrazol-4-ylmethyl)-3-[4-(pyrimidine-2-sulfonyl)-phenyl]-urea]
36 | 100 to 2000 nM | N#Cc1ccc(S(=O)(=O)c2ccc(NC(=O)NCc3cn[nH]c3)cc2)cc1 [1-[4-(4-Cyano-benzenesulfonyl)-phenyl]-3-(1H-pyrazol-4-ylmethyl)-urea]
37 | < 100 nM | O=C(NCc1cn[nH]c1)Nc1ccc(S(=O)(=O)c2ccccc2-c2ccccc2F)cc1 [1-[4-(2′-Fluoro-biphenyl-2-sulfonyl)-phenyl]-3-(1H-pyrazol-4-ylmethyl)-urea]

Same assay, conditions: Table B-5; NAMPT activation, NMN formation

Row | Structure (SMILES) | EC50
38 | O=C(NCc1cnco1)Nc1ccc(-c2cccc3[nH]cnc23)cc1 [1-[4-(1H-Benzoimidazol-4-yl)-phenyl]-3-oxazol-5-ylmethyl-urea] | > 20000 nM
39 | O=C(NCc1cnco1)Nc1ccc(S(=O)(=O)c2cccc(-c3ccccc3)c2)cc1 [1-(4-([1,1′-Biphenyl]-3-ylsulfonyl)phenyl)-3-(oxazol-5-ylmethyl)urea] | 100 to 2000 nM
40 | Cc1cccc2c(-c3ccc(NC(=O)NCc4cnco4)cc3)nn(C)c12 [1-(4-(1,7-Dimethyl-1H-indazol-3-yl)phenyl)-3-(oxazol-5-ylmethyl)urea] | 2000 to 5000 nM

More lines, now with the values ahead:

Row | EC50 | Structure (SMILES)
41 | 2000 to 5000 nM | Cn1nc(-c2ccc(NC(=O)NCc3cnco3)cc2)c2ccccc21 [1-[4-(1-Methyl-1H-indazol-3-yl)-phenyl]-3-oxazol-5-ylmethyl-urea]
42 | 100 to 2000 nM | Cc1ccc(S(=O)(=O)c2ccc(NC(=O)NCc3cnco3)cc2)cn1 [1-[4-(6-Methyl-pyridine-3-sulfonyl)-phenyl]-3-oxazol-5-ylmethyl-urea]

Same assay, conditions: Table B-6; NAMPT activation, NMN formation

Row | Structure (SMILES) | EC50
43 | O=C(NCc1ccncc1)Nc1ccc(S(=O)(=O)c2ccc(F)cc2F)cc1 [1-[4-(2,4-Difluoro-benzenesulfonyl)-phenyl]-3-pyridin-4-ylmethyl-urea] | 100 to 2000 nM
44 | Cn1nc(-c2ccc(NC(=O)NCc3ccncc3)cc2)c2ncccc21 [1-[4-(1-Methyl-1H-pyrazolo[4,3-b]pyridin-3-yl)-phenyl]-3-pyridin-4-ylmethyl-urea] | 100 to 2000 nM
45 | O=C(NCc1ccncc1)Nc1ccc(S(=O)(=O)c2ccccc2-c2ccc(F)cc2)cc1 [1-[4-(4′-Fluoro-biphenyl-2-sulfonyl)-phenyl]-3-pyridin-4-ylmethyl-urea] | 100 to 2000 nM

Now from value to compound:

Row | EC50 | Structure (SMILES)
46 | 100 to 2000 nM | O=C(NCc1ccncc1)Nc1ccc(S(=O)(=O)c2ccccc2-c2ccccc2)cc1 [1-(4-([1,1′-Biphenyl]-2-ylsulfonyl)phenyl)-3-(pyridin-4-ylmethyl)urea]
47 | 100 to 2000 nM | CC(C)N1CCC(S(=O)(=O)c2ccc(NC(=O)NCc3ccncc3)cc2)CC1 [1-[4-(1-Isopropyl-piperidine-4-sulfonyl)-phenyl]-3-pyridin-4-ylmethyl-urea]
48 | < 100 nM | COc1ccc(CS(=O)(=O)Nc2ccc(NC(=O)NCc3ccncc3)cc2)cc1 [C-(4-Methoxy-phenyl)-N-[4-(3-pyridin-4-ylmethyl-ureido)-phenyl]-methanesulfonamide]
